# Reference: US12421216B2, “Voruciclib polymorphs and methods of making and using thereof” (MEI PHARMA, INC., priority 2019, dated 2025)
# “Also recorded” adds a separate entry of the source. Where a name gives a salt, the structure may show the parent alone. Read-outs that look alike come from different tables or passages of the source.
# Tests used:
# [1] = Quantitative solubility determination of voruciclib malonate after the thermocycling experiments (UPLC); type: physicochemical
# Method: Moreover, after the thermocycling experiments, an aliquot of the mother liquor was taken and analyzed by UPLC to determine the API solubility. After that, the solutions were evaporated under vacuum (5 mbar) and the dry solids were analyzed by HT-XRPD. The solids were then exposed to accelerated aging conditions (2 days at 40° C./75% RH) followed by HT-XRPD re-analysis. Suspensions of amorphous voruciclib malonate salt were prepared in 24 solvents. After the temperature profile, an aliquot of mother liquor was taken, filtered and analyzed by UPLC to determine the API solubility. A small aliquot of mother liquor was taken and filtered using 0.2 μM PTFE syringe filters. The concentration of solute was determined by UPLC analysis. After that, the solutions were evaporated under vacuum (5 mbar) and the dry solids were analyzed by HT-XRPD. The solids were then exposed to accelerated aging conditions (2 days at 40° C./75% RH) followed by HT-XRPD re-analysis.
# [2] = dog, in vivo
# Method: Each salt form was formulated into tablets with identical formulations. 9 dogs were divided into three group of 3 dogs/group. Each group received one of the following different pre-treatments: • 1. No pretreatment (natural gastric pH—could be acidic or alkaline) • 2. Famotidine (causes alkaline gastric pH) • 3. Pentagastrin (causes acidic gastric pH) The study used a crossover design. Each group of dogs first received pretreatment and was dosed with the Voruciclib HCl salt. After a washout period, the same group of dogs received the same pretreatment and was dosed with the Voruciclib malonate salt. The results were then analyzed for variability. […]
# Clinical observations were recorded at least once daily, approximately 1 hour post-Voruciclib dose on dosing days. Body weight measurements were recorded for randomization, prior to dose administration (Day 1 and 8), and on the last day of the washout period following Phase 1 (Day 7). […]
# Pharmacokinetic Analysis: Pharmacokinetic (PK) analyses were performed on the individual plasma concentration versus time data for Voruciclib using Phoenix WinNonlin non-compartmental analysis. To evaluate drug absorption, the PK parameter C max (maximum plasma concentration) was measured.
# For each dog, the actual administered dose of voruciclib free base was calculated on a mg/kg basis, using the dog body weight data. […]
# [3] = Physical stability upon exposure to accelerated aging conditions (AAC, 40° C./75% RH), re-analysis by HT-XRPD; type: physicochemical; conditions: for Physical stability upon exposure to AAC: HT-XRPD before and after; for Stable during AAC: salt screen solids
# [4] = Physical stability of solid forms upon drying under vacuum, HT-XRPD; type: physicochemical; conditions: for Physical stability upon drying under deep/high vacuum: oxalate, phosphate, malonate forms, 5 mbar, 18 h
structure (smiles),measurement,setting,value
"CN1CC[C@H](c2c(O)cc(O)c3c(=O)cc(-c4ccc(C(F)(F)F)cc4Cl)oc23)[C@H]1CO (stereo in doubt) [voruciclib malonate, 2-(2-chloro-4-(trifluoromethyl)phenyl)-5,7-dihydroxy-8-((2S,3R)-2-(hydroxymethyl)-1-methylpyrrolidin-3-yl)-4H-chromen-4-one malonate salt]",solubility,"[1]; 1,2-dimethoxyethane, organic solvent or mixture, thermodynamic from solid, 1,2-Dimethoxyethane, read-out: Solubility",2.3 mg/mL
same,solubility,"[1]; 1,4-dioxane, organic solvent or mixture, thermodynamic from solid, 1,4-Dioxane, read-out: Solubility",0.9 mg/mL
same,solubility,"[1]; 2-propanol, organic solvent or mixture, thermodynamic from solid, 2-Propanol, read-out: Solubility",5.1 mg/mL
same,solubility,"[1]; 2-propanol/water (90/10), organic solvent or mixture, thermodynamic from solid, 2-Propanol/water (90/10), read-out: Solubility",130 mg/mL
same,solubility,"[1]; IPA, acetone, AcN, MEK and 1,2-dimethoxyethane, organic solvent or mixture, thermodynamic from solid, IPA, acetone, AcN, MEK and 1,2-dimethoxyethane, read-out: Solubility classification",1 to 10 mg/mL
same,solubility,"[1]; THF, water and EtOH, water, thermodynamic from solid, THF, water and EtOH, read-out: Solubility classification",10 to 33 mg/mL
same,solubility,"[1]; acetone, organic solvent or mixture, thermodynamic from solid, Acetone, read-out: Solubility",5 mg/mL
same,solubility,"[1]; acetone/water (90/10), organic solvent or mixture, thermodynamic from solid, Acetone/water (90/10), read-out: Solubility",245 mg/mL
same,solubility,"[1]; acetone/water (90/10, v/v) and IPA/water (90/10, v/v), organic solvent or mixture, thermodynamic from solid, acetone/water (90/10, v/v) and IPA/water (90/10, v/v), read-out: Solubility classification",100 to 1000 mg/mL
same,solubility,"[1]; acetonitrile, organic solvent or mixture, thermodynamic from solid, Acetonitrile, read-out: Solubility",3 mg/mL
same,solubility,"[1]; anisole, organic solvent or mixture, thermodynamic from solid, Anisole, read-out: Solubility",< 0.04 mg/mL
same,solubility,"[1]; chloroform, organic solvent or mixture, thermodynamic from solid, Chloroform, read-out: Solubility",0.5 mg/mL
same,solubility,"[1]; cyclohexane, organic solvent or mixture, thermodynamic from solid, Cyclohexane, read-out: Solubility",< 0.07 mg/mL
same,solubility,"[1]; dichloromethane, organic solvent or mixture, thermodynamic from solid, Dichloromethane, read-out: Solubility",0.3 mg/mL
same,solubility,"[1]; diethyl ether, organic solvent or mixture, thermodynamic from solid, Diethyl ether, read-out: Solubility",< 0.04 mg/mL
same,solubility,"[1]; ethanol, organic solvent or mixture, thermodynamic from solid, Ethanol, read-out: Solubility",13.6 mg/mL
same,solubility,"[1]; ethyl acetate, organic solvent or mixture, thermodynamic from solid, Ethyl acetate, read-out: Solubility",0.3 mg/mL
same,solubility,"[1]; ethyl formate, organic solvent or mixture, thermodynamic from solid, Ethyl formate, read-out: Solubility",0.4 mg/mL
same,solubility,"[1]; isopropyl acetate, organic solvent or mixture, thermodynamic from solid, Isopropyl acetate, read-out: Solubility",0.1 mg/mL
same,solubility,"[1]; methanol, organic solvent or mixture, thermodynamic from solid, Methanol, read-out: Solubility",65.7 mg/mL
same,solubility,"[1]; methanol, organic solvent or mixture, thermodynamic from solid, methanol, read-out: Solubility classification",33 to 100 mg/mL
same,solubility,"[1]; methyl ethyl ketone, organic solvent or mixture, thermodynamic from solid, Methyl ethyl ketone, read-out: Solubility",2.9 mg/mL
same,solubility,"[1]; n-heptane, organic solvent or mixture, thermodynamic from solid, n-Heptane, read-out: Solubility",< 0.06 mg/mL
same,solubility,"[1]; organic solvent or mixture, thermodynamic from solid, 1,4-dioxane, chloroform, ethyl formate, DCM, ethyl acetate and isopropyl acetate, read-out: Solubility classification",0.1 to 1 mg/mL
same,solubility,"[1]; organic solvent or mixture, thermodynamic from solid, toluene, anisole, MTBE, diethyl ether, pentane, cyclohexane and n-heptane, read-out: Solubility classification",< 0.1 mg/mL
same,solubility,"[1]; pentane, organic solvent or mixture, thermodynamic from solid, Pentane, read-out: Solubility",< 0.05 mg/mL
same,solubility,"[1]; tert-butyl methyl ether, organic solvent or mixture, thermodynamic from solid, tert-Butyl methyl ether, read-out: Solubility",< 0.04 mg/mL
same,solubility,"[1]; tetrahydrofuran, organic solvent or mixture, thermodynamic from solid, Tetrahydrofuran, read-out: Solubility",14.2 mg/mL
same,solubility,"[1]; toluene, organic solvent or mixture, thermodynamic from solid, Toluene, read-out: Solubility",< 0.04 mg/mL
same,solubility,"[1]; water, thermodynamic from solid, Water, read-out: Solubility",13.6 mg/mL
same,Variability of absorption,[2],lower than the hydrochloride salt
CN1CC[C@@H](c2c(O)cc(O)c3c(=O)cc(-c4ccc(C(F)(F)F)cc4Cl)oc23)[C@@H]1CO.O=C(O)CC(=O)O [Mao1],Physical stability upon exposure to AAC,"[3]; 40° C./75% RH, 2 days",physically stable upon exposure to AAC; also recorded: physically stable upon exposure to stress conditions
same,Physically stable,"[3]; malonate salt forms, exposure to AAC 40° C./75% RH, 2 days",Yes
same,Solid forms: Ambient-dried solid (AAC),"[3]; malonate salt thermocycling experiments, label = form of the ambient-dried solid before AAC, 40° C./75% RH, 2 days, HT-XRPD",Mao1
same,Solid forms: Evap. ML (AAC),"[3]; malonate salt thermocycling experiments, label = form of the solid from the evaporated mother liquor before AAC, 40° C./75% RH, 2 days, HT-XRPD",Mao1
same,Solid forms: Vacuum-dried solids (AAC),"[3]; malonate salt thermocycling experiments, label = form of the vacuum-dried solid before AAC, 40° C./75% RH, 2 days, HT-XRPD",Mao1
same,Stable during AAC,"[3]; 40° C./75% RH, 2 days",Yes
same,Liquid phase AAC (XRPD form after accelerated aging),"[3]; solids from evaporated mother liquors of the salt screen, 40° C./75% RH for 2 days, HT-XRPD",Mao1
same,Physical stability upon drying under deep/high vacuum,[4],physically stable
CN1CCC(c2c(O)cc(O)c3c(=O)cc(-c4ccc(C(F)(F)F)cc4Cl)oc23)C1CO.O=P(O)(O)O (stereo not drawn) [Pho1],Physical stability upon exposure to AAC,"[3]; 40° C./75% RH, 2 days",the only stable from when exposed to advance aging conditions; also recorded: physically stable under AAC for 2 days; also recorded: physically stable upon exposure to AAC for two days; also recorded: remained stable
same,Solid phase AAC (XRPD form after accelerated aging),"[3]; precipitated solids of the salt screen, dried under vacuum at 50° C., 40° C./75% RH for 2 days, HT-XRPD",Pho1
same,Stable during AAC,"[3]; 40° C./75% RH, 2 days",Yes
same,Physical stability upon drying under deep/high vacuum,[4],physically stable; also recorded: remained stable
same,Vacuum,"[4]; phosphate salt cooling crystallization, form after drying under deep vacuum (5 mbar), label = ambient-dried form",Pho1
same,Solid forms Vacuum,"[4]; phosphate salt thermocycling solids, form after drying under deep vacuum (5 mbar, 18 h), HT-XRPD, label = ambient-dried form",Pho1
